# Measurements from patent publication US11576914B2, “Drug for treating or preventing disorder caused by TGF-β signaling, and application thereof” (THE DOSHISHA, priority 2017, dated 2023).
# Key:
# [1] = tested on: immortalized human corneal endothelial cells (iHCEC); experiment: Cell damage by ER stress induced by thapsigargin; format: cell-based; details: 24 hours pretreatment, 20 μM thapsigargin 3 hours
# Experimental: The medium was removed from a culture dish in which immortalized human corneal endothelial cells (iHCEC) were being cultured, and the cells were supplemented with 1×PBS (−) that was preheated to 37° C., and were washed. This operation was repeated twice. The cells were supplemented again with 1×PBS (−) and incubated for 5 minutes at 37° C. (5% CO2). After removing the PBS (−), the cells were supplemented with 0.05% Trypsin-EDTA (Nacalai Tesque, 32778-34) and incubated for 5 minutes at 37° C. (5% CO2). The cells were then suspended in a medium, and collected by centrifugation at 1500 rpm for 3 minutes. DMEM (Nacalai Tesque, 08456-36)+10% FBS (Biowest, S1820-500)+1% P/S (Nacalai Tesque, 26252-94) was used as the medium. Immortalized human corneal endothelial cells (lot: iHCEC1-1) were seeded on a 12-well plate at a ratio of 8×10^4 cells per well and cultured for 48 hours at 37° C. (5% CO2) while using DMEM+10% FBS+1% P/S as the medium. The medium was then removed, and each inhibitor was added to culture the cells for 24 hours using DMEM+2% FBS+1% P/S as the medium. The medium was then removed. A medium (DMEM+2% FBS+1% P/S) containing 20 μM thapsigargin (Wako, 209-17281) and AKP-001 was added to culture the cells for 3 hours. Then, the cell morphology and apoptosis were observed using a phase contrast microscope.
# caspase 3/7 = experiment: Caspase-Glo 3/7 Assay in human corneal endothelial cells in the presence of AKP-001; format: cell-based; details: 24 hours
# Experimental: Cultured human corneal endothelial cells were seeded at a rate of 1×10^4 per well in a 96-well plate coated with laminin-511E8, and the cells were cultured until reaching confluence at 37° C. (5% CO^2). For the medium, used was OptiMEM-I (invitrogen, 31985-088)+8% FBS (Thermo, SH30084.03)+5 ng/mL epidermal growth factor (invitrogen, PHG0311)+20 μg/mL L-ascorbic acid 2-sesquimagnesium phosphate hydrate (SIGMA, A8960)+200 mg/L calcium chloride dihydrate (SIGMA, C7902)+0.08% chondroitin sulfate (Wako Pure Chemical Industries, Ltd., 032-14613)+50 μg/mL gentamicin (invitrogen, 15710-064)+1 μM SB431542 (WAKO, 192-16541)+10 μM SB203580 (Cayman, 13067).
# Upon reaching confluence, the culturing was further conducted for one more week with OptiMEM-I (invitrogen, 31985-088)+8% FBS (Thermo, SH30084.03)+20 μg/mL+200 mg/L calcium chloride dihydrate (SIGMA, C7902)+0.08% chondroitin sulfate (Wako Pure Chemical Industries, Ltd., 032-14613)+50 μg/mL gentamicin (invitrogen, 15710-064).
# After one week, the medium was removed, and a medium with 0.1 μM, 0.3 μM, 1 μM, 3 μM, 10 μM, 30 μM and 100 μM AKP-001 included therein was added, followed by culturing for 24 hours. For the medium, used was OptiMEM-I (invitrogen, 31985-088)+8% FBS (Thermo, SH30084.03)+20 μg/mL+200 mg/L calcium chloride dihydrate (SIGMA, C7902)+0.08% chondroitin sulfate (Wako Pure Chemical Industries, Ltd., 032-14613)+50 μg/mL gentamicin (invitrogen, 15710-064).
# After the observation, the caspase 3/7 activity was measured by Caspase-Glo 3/7 Assay according to the following procedure. The medium was discarded to 50 μl per well, and Caspase Glo 3/7 Assay Reagent (mixture of Caspase-Glo 3/7 Assay Buffer and Caspase-Glo 3/7 Assay Substrate) (Promega, G8091) solution was added to the 50 μl/well to reach 1:1 with the medium. The operations from this point on were conducted while light was blocked. […] After standing, 80 μl was transferred to an Assay plate (Corning, 3912, Assay plate 96 well, white polystyrene), and the […] was measured using GloMax-Multi Detection System (Promega, E7051).
smiles,measurement,setting,value
"O=C(Cc1c(F)cccc1Cl)Nc1onc(-c2ccc(F)cc2)c1-c1ccncn1 [AKP-001, 5-[(2-chloro-6-fluorophenyl)acetylamino]-3-(4-fluorophenyl)-4-(4-pyrimidinyl)isoxazole]",damage to the corneal endothelial cells,[1],suppression of damage to the corneal endothelial cells was observed
same,caspase 3/7 activity compared to the control group,"caspase 3/7; 0.1 μM, 0.3 μM, 1 μM and 3 μM",no significant difference
same,caspase 3/7 activity compared to the control group,"caspase 3/7; 10 μM, 30 μM and 100 μM",significantly activated
same,concentrations at which no damage to the cells is caused,caspase 3/7,≤ 10 µM
